# System: H9 embryonic stem cells
# Assay type: cell-based, human
# Protocol: Controls for each group included cells plated on […]-coated dishes and cultured in MEF-conditioned medium or cells plated on MEFs and cultured in ES medium. All groups contained three biological replicates and each biological replicate was repeated on two separate gene chips.
# Sample preparation, hybridization, and image analysis were performed according to the Affymetrix Human Genome U133 Plus 2.0 Array. Following normalization and a log transformation, data analysis was performed using OmniViz® software (MA) and […] (VizXLabs, WA). Significant differences in gene expression between the samples were evaluated using analysis of variance and an F-test with adjusted P-value (Benjamini and
# Hochberg correction) of ≦b 0.05. Only genes with a present call in at least one group were included in the analysis.
# [1] = DE treatment in low serum, on MEFS
substance,measurement,setting,value
Activin A: a member of the TGFβ superfamily; R&D Systems; Group 2 = Activin A (100 ng/ml),"mean normalized intensity (log format), gene: Homo sapiens methyl-CpG binding protein MBD2 (MBD2) mRNA, complete cds.",[1],−1.702
same,"mean normalized intensity (log format), gene: Homo sapiens tachykinin, precursor 1 (TAC1), transcript variant beta, mRNA.",[1],1.483
same,"mean normalized intensity (log format), gene: Homo sapiens testis expressed sequence 14 (TEX14), mRNA.",[1],−1.3824
same,"mean normalized intensity (log format), gene: Homo sapiens, Similar to LIM homeobox protein 8, clone IMAGE: 4839343, mRNA.",[1],−1.11
same,"mean normalized intensity (log format), gene: Homo sapiens, Similar to cadherin 6, type 2, K-cadherin (fetal kidney), clone MGC: 1470, mRNA, complete cds.",[1],2.134
same,"mean normalized intensity (log format), gene: Homo sapiens, Similar to hypothetical protein FLJ10058, clone MGC: 34305 IMAGE: 5167647, mRNA, complete cds.",[1],0.2156
same,"mean normalized intensity (log format), gene: Homo sapiens, Similar to hypothetical protein FLJ32001, clone MGC: 39559 IMAGE: 4828136, mRNA, complete cds.",[1],1.269
same,"mean normalized intensity (log format), gene: Homo sapiens, clone IMAGE: 4067166, mRNA",[1],0.277
same,"mean normalized intensity (log format), gene: Homo sapiens, clone IMAGE: 4828836, mRNA.",[1],−1.484
same,"mean normalized intensity (log format), gene: Homo sapiens, serine (or cysteine) proteinase inhibitor, clade B (ovalbumin), member 3, clone MGC: 12244, mRNA, complete cds.",[1],−1.566
same,"mean normalized intensity (log format), gene: Human mRNA upregulated during camptothecin-induced apoptosis of U937 cells.",[1],−0.1892
same,"mean normalized intensity (log format), gene: Human platelet-derived growth factor alpha-receptor (PDGFRA) mRNA, exons 13-16",[1],2.905
same,"mean normalized intensity (log format), gene: KIAA1151 protein",[1],1.009
same,"mean normalized intensity (log format), gene: caldesmon 1",[1],5.634
same,"mean normalized intensity (log format), gene: nuclear receptor subfamily 1, group I, member 3",[1],−0.1968
same,"mean normalized intensity (log format), gene: paternally expressed 3 (r2033)",[1],−0.0118
same,"mean normalized intensity (log format), gene: paternally expressed 3 (r2093)",[1],−3.492
same,"log intensity, AD036 mRNA","low serum, on MATRIGEL",−0.5033
same,"log intensity, ADP-ribosylation factor 4-like (ARF4L)","low serum, on MATRIGEL",1.635
same,"log intensity, BACE mRNA for beta-site APP cleaving enzyme I-476","low serum, on MATRIGEL",0.4855
same,"log intensity, BTB (POZ) domain containing 2 (BTBD2)","low serum, on MATRIGEL",1.101
same,"log intensity, CXCR4 gene encoding receptor CXCR4","low serum, on MATRIGEL",3.111
same,"log intensity, Cluster Incl. AB002344: Human mRNA for KIAA0346 gene (r901)","low serum, on MATRIGEL",2.157
same,"log intensity, Cluster Incl. AB002344: Human mRNA for KIAA0346 gene (r941)","low serum, on MATRIGEL",1.896
same,"log intensity, Cluster Incl. L37033: Human FK-506 binding protein homologue (FKBP38)","low serum, on MATRIGEL",0.6156
same,"log intensity, Cluster Incl. N80935: zb07g06.s1 Homo sapiens cDNA","low serum, on MATRIGEL",2.124
same,"log intensity, ESTs (r403)","low serum, on MATRIGEL",0.7843
same,"log intensity, ESTs (r404)","low serum, on MATRIGEL",−1.263
same,"log intensity, ESTs (r405)","low serum, on MATRIGEL",−1.717
same,"log intensity, ESTs (r442)","low serum, on MATRIGEL",2.774
same,"log intensity, ESTs (r453)","low serum, on MATRIGEL",−1.637
same,"log intensity, ESTs (r473)","low serum, on MATRIGEL",−0.04834
same,"log intensity, ESTs (r491)","low serum, on MATRIGEL",−1.344
same,"log intensity, ESTs (r522)","low serum, on MATRIGEL",−0.8015
same,"log intensity, ESTs (r523)","low serum, on MATRIGEL",−2.576
same,"log intensity, ESTs (r524)","low serum, on MATRIGEL",0.4996
same,"log intensity, ESTs (r556)","low serum, on MATRIGEL",−0.1206
same,"log intensity, ESTs (r567)","low serum, on MATRIGEL",−2.015
same,"log intensity, ESTs (r627)","low serum, on MATRIGEL",2.542
same,"log intensity, ESTs (r741)","low serum, on MATRIGEL",−0.004009
same,"log intensity, ESTs (r745)","low serum, on MATRIGEL",1.386
same,"log intensity, ESTs (r766)","low serum, on MATRIGEL",1.047
same,"log intensity, ESTs (r767)","low serum, on MATRIGEL",−1.485
same,"log intensity, ESTs (r891)","low serum, on MATRIGEL",−2.079
same,"log intensity, ESTs (r916)","low serum, on MATRIGEL",−0.1464
same,"log intensity, ESTs (r938)","low serum, on MATRIGEL",−1.246
same,"log intensity, ESTs (r980)","low serum, on MATRIGEL",−0.1842
same,"log intensity, ESTs (r1021)","low serum, on MATRIGEL",−0.4037
same,"log intensity, ESTs (r1022)","low serum, on MATRIGEL",2.144
same,"log intensity, ESTs (r1059)","low serum, on MATRIGEL",0.7835
same,"log intensity, ESTs (r1060)","low serum, on MATRIGEL",1.175
same,"log intensity, ESTs (r1110)","low serum, on MATRIGEL",0.533
same,"log intensity, ESTs (r1115)","low serum, on MATRIGEL",−1.164
same,"log intensity, ESTs, Highly similar to AF229172 1 class III myosin","low serum, on MATRIGEL",−0.4755
same,"log intensity, ESTs, Moderately similar to ALU4_HUMAN ALU SUBFAMILY SB2","low serum, on MATRIGEL",−1.104
same,"log intensity, ESTs, Moderately similar to JC4969 pig-c protein","low serum, on MATRIGEL",−2.397
same,"log intensity, ESTs, Moderately similar to NFY-C","low serum, on MATRIGEL",−0.7494
same,"log intensity, ESTs, Weakly similar to A46302 PTB-associated splicing factor, long form","low serum, on MATRIGEL",0.8941
same,"log intensity, ESTs, Weakly similar to ALU8_HUMAN ALU SUBFAMILY SX","low serum, on MATRIGEL",2.766
same,"log intensity, ESTs, Weakly similar to ALUC_HUMAN","low serum, on MATRIGEL",1.08
same,"log intensity, ESTs, Weakly similar to ALUF_HUMAN","low serum, on MATRIGEL",−1.032
same,"log intensity, ESTs, Weakly similar to KIAA1330 protein","low serum, on MATRIGEL",−0.9252
same,"log intensity, ESTs, Weakly similar to KIAA1399 protein","low serum, on MATRIGEL",−0.8312
same,"log intensity, ESTs, Weakly similar to T32252 hypothetical protein T15B7.2","low serum, on MATRIGEL",2.21
same,"log intensity, ESTs, Weakly similar to Z132_HUMAN ZINC FINGER PROTEIN 13","low serum, on MATRIGEL",1.049
same,"log intensity, F37Esophageal cancer-related gene-coding leucine-zipper motif (FEZ1)","low serum, on MATRIGEL",−0.1288
same,"log intensity, FLICE-like inhibitory protein short form","low serum, on MATRIGEL",0.1358
same,"log intensity, GS1999full mRNA","low serum, on MATRIGEL",0.137
same,"log intensity, H1 histone family, member X (H1FX)","low serum, on MATRIGEL",3.217

# From US20100255580A1, “Differentiation of Human Embryonic Stem Cells” (LIFESCCAN, INC., priority 2007, published 2010)
